Tests used:
[1] = Storage stability of the solid form; format: physicochemical; settings: storage for longer time; no conditions or data printed
[2] = description from the drug label; cited from earlier work

Row | Compound | stability on handling and storage (morphology and physicochemical characteristics) [1] | solubility in water [2]
1 | CO[C@H]1C(=O)[C@@]2(C)C([C@H](OC(=O)c3ccccc3)[C@]3(O)C[C@H](OC(=O)[C@H](O)[C@H](NC(=O)OC(C)(C)C)c4ccccc4)C(C)=C1C3(C)C)[C@]1(OC(C)=O)CO[C@@H]1C[C@@H]2OC (some centres unmarked) | quite stable | 
2 | CO[C@H]1C(=O)[C@]2(C)[C@@H](OC)C[C@H]3OC[C@@]3(OC(C)=O)[C@H]2[C@H](OC(=O)c2ccccc2)[C@]2(O)C[C@H](OC(=O)[C@H](O)[C@@H](NC(=O)OC(C)(C)C)c3ccccc3)C(C)=C1C2(C)C [Cabazitaxel, (2α,5β,7β,10β,13α)-4-acetoxy-13-({(2R,3S)-3[(tert-butoxycarbonyl)amino]-2-hydroxy-3-phenylpropanoyl}oxy)-1-hydroxy-7,10-dimethoxy-9-oxo-5,20-epoxytax-11-en-2-yl benzoate] |  | practically insoluble in water

— patent publication US20160340327A1, “PROCESS FOR PREPARING AMORPHOUS CABAZITAXEL” (SHILPA MEDICARE LIMITED, priority 2012, published 2016)
